Results as given in US20220267260A1, “COMPOUNDS CONTAINING A SULFONIC GROUP AS KAT INHIBITORS” (Epizyme, Inc., priority 2016, published 2022).

Assays:
KAT5 = target: T1, KAT5 (Homo sapiens, UniProt Q92993); assay: KAT5 enzyme inhibition assay (SAMDI mass spectrometry); type: biochemical; conditions: His-TEV-FL KAT5-Flag enzyme construct
T1 construct: His-TEV tag (N, cleaved yes); made in house

KAT6A = target: T2, KAT6A (Homo sapiens, UniProt Q92794); assay: KAT6A enzyme inhibition assay (SAMDI mass spectrometry); type: biochemical; conditions: His-TEV-KAT6A 501-784 enzyme construct
T2 construct: His-TEV tag (N, cleaved yes); made in house
T2 sequence (Q92794 with tags, fused parts or gaps): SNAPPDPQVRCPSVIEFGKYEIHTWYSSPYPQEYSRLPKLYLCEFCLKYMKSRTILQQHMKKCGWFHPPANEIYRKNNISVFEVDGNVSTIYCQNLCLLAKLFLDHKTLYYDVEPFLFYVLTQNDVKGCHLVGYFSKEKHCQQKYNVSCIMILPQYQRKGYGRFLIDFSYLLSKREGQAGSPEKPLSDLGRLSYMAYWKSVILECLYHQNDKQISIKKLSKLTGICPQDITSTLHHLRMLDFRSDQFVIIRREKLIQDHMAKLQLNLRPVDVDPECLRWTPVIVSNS

T1 sequence (Q92993 with tags, fused parts or gaps): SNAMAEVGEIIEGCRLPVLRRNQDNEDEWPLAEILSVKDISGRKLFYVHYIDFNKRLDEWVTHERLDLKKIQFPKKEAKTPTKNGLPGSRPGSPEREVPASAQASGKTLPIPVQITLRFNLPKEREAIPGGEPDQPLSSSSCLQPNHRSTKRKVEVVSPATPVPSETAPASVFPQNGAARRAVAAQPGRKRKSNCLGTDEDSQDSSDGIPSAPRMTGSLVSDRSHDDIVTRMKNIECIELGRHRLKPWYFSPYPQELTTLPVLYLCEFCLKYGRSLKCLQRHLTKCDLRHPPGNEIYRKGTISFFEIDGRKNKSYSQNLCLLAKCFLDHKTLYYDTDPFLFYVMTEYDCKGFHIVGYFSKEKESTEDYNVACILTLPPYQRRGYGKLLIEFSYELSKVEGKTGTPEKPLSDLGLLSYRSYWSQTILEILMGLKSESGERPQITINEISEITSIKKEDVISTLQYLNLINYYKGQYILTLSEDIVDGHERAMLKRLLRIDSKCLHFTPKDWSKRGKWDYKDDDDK

Compound	IC50 (KAT5) [µM]	IC50 (KAT6A) [µM]
COCC(=O)N1CC(CS(=O)(=O)NNC(=O)c2cc(-c3ccccc3)cc(C)c2F)C1 [Compound I-310]	10 to 50	≤ 10
COc1c(C)cc(-c2ccccc2)cc1C(=O)NNS(=O)(=O)C1CCCCC1 [Compound I-311]	> 100	> 100
O=C(NNS(=O)(=O)C1CCCCC1)c1c(F)ccc(-c2ccccc2)c1Cl [Compound I-312]	> 100	> 100
Cc1cc(-c2ccccc2)cc(C(=O)NNS(=O)(=O)C(C)C2CCCN(C(=O)OC(C)(C)C)C2)c1F (stereo not shown) [Compound I-313]	≤ 10	10 to 50
Cc1cc(-c2ccccc2)cc(C(=O)NNS(=O)(=O)C(C)C2CCCNC2)c1F (stereo not shown) [Compound I-314]	> 100	> 100
COc1cc(-c2ccccc2)cc(C(=O)NNS(=O)(=O)C2CCCCC2)c1F [Compound I-315]	10 to 50	10 to 50
Cc1c(C(=O)NNS(=O)(=O)c2cccc(Cl)c2)cnn1-c1ccccc1 [Compound I-316]	> 100	> 100
Cc1cc(-c2cc(F)cc(F)c2)cc(C(=O)NNS(=O)(=O)C2CCCCC2)c1F [Compound I-317]	≤ 10	10 to 50
Cc1cc(-c2ccccc2Cl)cc(C(=O)NNS(=O)(=O)C2CCCCC2)c1F [Compound I-318]	50 to 100	50 to 100
Cc1cc(-c2ccc(F)cc2)cc(C(=O)NNS(=O)(=O)C2CCCCC2)c1F [Compound I-319]	10 to 50	50 to 100
Cc1cc(-c2ccccc2)cc(C(=O)NNS(=O)(=O)CC2CCNC2)c1F (stereo not shown) [Compound I-320]	10 to 50	10 to 50
Cc1cc(-c2ccccc2F)cc(C(=O)NNS(=O)(=O)C2CCCCC2)c1F [Compound I-321]	≤ 10	10 to 50
CC(=O)N1CCCC(CS(=O)(=O)NNC(=O)c2cc(-c3ccccc3)cc(C)c2F)C1 (stereo not shown) [Compound I-322]	≤ 10	≤ 10
Cc1cc(-c2cccc(F)c2)cc(C(=O)NNS(=O)(=O)C2CCCCC2)c1F [Compound I-323]	≤ 10	≤ 10
Cc1cccc(-c2cc(C)c(F)c(C(=O)NNS(=O)(=O)C3CCCCC3)c2)c1 [Compound I-325]	≤ 10	10 to 50
Cc1cccc(-c2cc(C)c(F)c(C(=O)NNS(=O)(=O)c3ccccc3)c2)c1 [Compound I-326]	≤ 10	≤ 10
Cc1cc(-c2cccc(F)c2)cc(C(=O)NNS(=O)(=O)CC2CCN(C(=O)CCN(C)C(=O)OC(C)(C)C)CC2)c1F [Compound I-327]	≤ 10	≤ 10
CNCCC(=O)N1CCCC(CS(=O)(=O)NNC(=O)c2cc(-c3cccc(F)c3)cc(C)c2F)C1 (stereo not shown) [Compound I-328]	10 to 50	10 to 50
Cc1cc(-c2cccc(F)c2)cc(C(=O)NNS(=O)(=O)CC2CCCN(C(=O)CCN(C)C)C2)c1F (stereo not shown) [Compound I-329]	10 to 50	10 to 50
CC(=O)N1CCCC(CS(=O)(=O)NNC(=O)c2cc(-c3cccc(F)c3)cc(C)c2F)C1 (stereo not shown) [Compound I-330]	≤ 10	≤ 10
Cc1cc(-c2cccc(F)c2)cc(C(=O)NNS(=O)(=O)CC2CCCN(C(=O)CCN(C)C(=O)OC(C)(C)C)C2)c1F (stereo not shown) [Compound I-331]	≤ 10	≤ 10
O=C(NNS(=O)(=O)C1CCCCC1)c1nc(-c2ccccc2)ccc1F [Compound I-332]	> 100	> 100

Compound	IC50 (KAT5) [µM]	IC50 (KAT6A) [µM]
CNCCC(=O)N1CCCC(CS(=O)(=O)NNC(=O)c2cc(-c3ccccc3)cc(C)c2F)C1 (stereo not shown) [Compound I-333]	10 to 50	10 to 50
COCCN1CCCC(C(C)S(=O)(=O)NNC(=O)c2cc(-c3ccccc3)cc(C)c2F)C1 (stereo not shown) [Compound I-334]	10 to 50	10 to 50
CC(=O)N1CCC(CS(=O)(=O)NNC(=O)c2cc(-c3ccccc3)cc(C)c2F)C1 (stereo not shown) [Compound I-335]	≤ 10	≤ 10
COCCN1CCC(CS(=O)(=O)NNC(=O)c2cc(-c3ccccc3)cc(C)c2F)C1 (stereo not shown) [Compound I-336]	10 to 50	10 to 50
Cc1cc(-c2ccccc2)cc(C(=O)NNS(=O)(=O)CC2CCCN(C)C2)c1F (stereo not shown) [Compound I-337]	10 to 50	10 to 50
Cc1cc(C2CCN(C)CC2)cc(C(=O)NNS(=O)(=O)C2CCCCC2)c1F [Compound I-338]	> 100	> 100
Cc1cc(-c2ccccc2)cc(C(=O)NNS(=O)(=O)CC2CCCN(CCO)C2)c1F (stereo not shown) [Compound I-339]	10 to 50	10 to 50
Cc1cc(-c2cccc(Cl)c2)cc(C(=O)NNS(=O)(=O)c2ccccc2)c1F [Compound I-340]	≤ 10	≤ 10
CC(=O)N1CCC(CS(=O)(=O)NNC(=O)c2cc(-c3ccccc3)cc(C)c2F)CC1 [Compound I-341]	≤ 10	≤ 10
Cc1cc(-c2cccc(Cl)c2)cc(C(=O)NNS(=O)(=O)CC2CCCCC2)c1F [Compound I-342]	50 to 100	50 to 100
Cc1cc(-c2ccccc2)cc(C(=O)NNS(=O)(=O)CC2CCN(CCO)CC2)c1F [Compound I-343]	10 to 50	10 to 50
COCC(=O)N1CCC(CS(=O)(=O)NNC(=O)c2cc(-c3ccccc3)cc(C)c2F)CC1 [Compound I-344]	≤ 10	≤ 10
Cn1cc2c(C(=O)NNS(=O)(=O)c3ccccc3)cc(-c3ccccc3)cc2n1 [Compound I-345]	> 100	> 100
COCC(=O)N1CCCC(CS(=O)(=O)NNC(=O)c2cc(-c3ccccc3)cc(C)c2F)C1 (stereo not shown) [Compound I-346]	≤ 10	≤ 10
Cc1cc(C)c(F)c(C(=O)NNS(=O)(=O)C2CCCCC2)c1 [Compound I-347]	10 to 50	> 100
COc1cccc(-c2cc(C)c(F)c(C(=O)NNS(=O)(=O)C3CCCCC3)c2)c1 [Compound I-348]	10 to 50	10 to 50
Cc1cc(-c2ccccc2)cc(C(=O)NNS(=O)(=O)CC2CCN(C)CC2)c1F [Compound I-349]	10 to 50	10 to 50
COc1cccc(-c2cc(C)c(F)c(C(=O)NNS(=O)(=O)c3ccccc3)c2)c1 [Compound I-350]	> 100	≤ 10
Cc1cc(-c2ccccc2)cc(C(=O)NNS(=O)(=O)CC2CCCNC2)c1F (stereo not shown) [Compound I-351]	10 to 50	> 100
Cc1cc(-c2ccccc2)cc(C(=O)NNS(=O)(=O)CC2CCCN(C(=O)OC(C)(C)C)C2)c1F (stereo not shown) [Compound I-352]	≤ 10	≤ 10
Cc1cc(-c2cc(F)cc(F)c2)cc(C(=O)NNS(=O)(=O)c2ccccc2)c1F [Compound I-353]	≤ 10	≤ 10
O=C(NNS(=O)(=O)c1ccccc1)c1c(F)cccc1-c1ccccc1 [Compound I-354]	> 100	> 100

Compound	IC50 (KAT5) [µM]	IC50 (KAT6A) [µM]
Cc1cc(-c2cc(F)cc(F)c2)cc(C(=O)NNS(=O)(=O)CC2CCCCC2)c1F [Compound I-355]	10 to 50	10 to 50
COCC(=O)N1CCC(CS(=O)(=O)NNC(=O)c2cc(-c3ccccc3)cc(C)c2F)C1 (stereo not shown) [Compound I-356]	≤ 10	≤ 10
Cc1cc(-c2cccc(F)c2)cc(C(=O)NNS(=O)(=O)CC2CCNCC2)c1F [Compound I-357]	50 to 100	> 100
Cc1cc(-c2cccc(Cl)c2)cc(C(=O)NNS(=O)(=O)C2CCCCC2)c1F [Compound I-358]	≤ 10	10 to 50
Cc1cc(-c2cccc(F)c2)cc(C(=O)NNS(=O)(=O)CC2CCN(C(=O)OC(C)(C)C)CC2)c1F [Compound I-359]	≤ 10	≤ 10
O=C(NNS(=O)(=O)C1CCCCC1)c1cc(-c2ccccc2)ccc1F [Compound I-360]	10 to 50	10 to 50
Cc1c(-c2ccccc2)ccc(F)c1C(=O)NNS(=O)(=O)Cc1ccccc1 [Compound I-361]	50 to 100	> 100
Cc1cc(-c2cccc(F)c2F)cc(C(=O)NNS(=O)(=O)c2ccccc2)c1F [Compound I-362]	≤ 10	≤ 10
Cc1c(C(=O)NNS(=O)(=O)C2CCCCC2)cccc1-c1ccccc1 [Compound I-363]	> 100	> 100
O=C(NNS(=O)(=O)C1CCCCC1)c1c(F)ccc(-c2ccccc2)c1F [Compound I-364]	50 to 100	50 to 100
Cc1cc(-c2cccc(OCCN(C)C)c2)cc(C(=O)NNS(=O)(=O)CC2CCCCC2)c1F [Compound I-365]	50 to 100	> 100
Cc1cc(-c2cccc(Cl)c2F)cc(C(=O)NNS(=O)(=O)CC2CCCCC2)c1F [Compound I-366]	10 to 50	50 to 100
Cc1cc(-c2ccccc2)cc(C(=O)NCc2noc3ccccc23)c1F [Compound I-368]	50 to 100	50 to 100
Cc1cc(-c2ccccc2)cc(C(=O)NNS(=O)(=O)CC2CCCN(C(=O)C(C)C)C2)c1F (stereo not shown) [Compound I-369]	≤ 10	≤ 10
COc1ccccc1-c1cc(C)c(F)c(C(=O)NNS(=O)(=O)CC2CCCCC2)c1 [Compound I-370]	10 to 50	> 100
Cc1cc(-c2cccc(F)c2)cc(C(=O)NNS(=O)(=O)c2ccccc2)c1F [Compound I-371]	≤ 10	≤ 10
CCC(=O)N1CCCC(CS(=O)(=O)NNC(=O)c2cc(-c3cccc(F)c3)cc(C)c2F)C1 (stereo not shown) [Compound I-372]	≤ 10	≤ 10
CCc1cccc(-c2cc(C)c(F)c(C(=O)NNS(=O)(=O)CC3CCCCC3)c2)c1 [Compound I-373]	50 to 100	50 to 100
Cc1cc(-c2cccc(C(=O)N(C)C)c2)cc(C(=O)NNS(=O)(=O)CC2CCCCC2)c1F [Compound I-374]	10 to 50	10 to 50
O=C(NNS(=O)(=O)C1CCCCC1)c1cc(-c2ccccc2)cc2[nH]cnc12 [Compound I-375]	50 to 100	50 to 100
Cc1cc(-c2cccc(Cl)c2F)cc(C(=O)NNS(=O)(=O)C2CCCCC2)c1F [Compound I-376]	10 to 50	10 to 50
